Assays:
[1] = biological target: T1, Serotonin 5-HT1A (Homo sapiens, UniProt P08908); test: GTPγ[35S] assay, Serotonin 5-HT1A; format: biochemical; conditions: agonism, CHO-K1 membranes
T1 construct: expressed in transfected cells; host or cells: CHO-K1 (membrane extracts)
Procedure: (§1) Receptor […] activity assays were performed using 8′OH-2-CF3-dihydroergotamine (8′OH-2-CF3-DHE). Table 1 summarizes the cell lines (CHO-K1/HEK293 transfected with relevant human receptor) and the assays performed to detect any agonist or antagonist activity.
GTPγS studies were conducted to monitor agonist activity for 8′OH-2CF3-dihydroergotamine (8′OH-2CF3-DHE) against the receptors indicated in Table 1 above. Reagents used were the following: Assay buffer (20 mM HEPES, pH 7.4; 100 mM NaCl; 10 μg/mL saponin; 30 mM MgCl2); Membranes (recombinant human receptor membrane extracts were thawed on ice and diluted in assay buffer to give 1000 μg/mL ([…]) and kept on ice); GDP (diluted in assay buffer to give 30 μM solution (3 μM final concentration); beads (PVT-WGA (Amersham, RPNQ001), diluted in assay buffer at 25 mg/mL (0.25 mg/10 μL)); GTPγ^35S (Perkin Elmer, NEG030X), diluted in assay buffer to give 0.1 nM (final concentration); and ligand (agonist/antagonist diluted in assay buffer).
Membranes were mixed with GDP (1:1) and incubated for at least 15 minutes on ice. In parallel GTPγ^35S was mixed with the beads (1:1) just before starting the reaction. […] The plates were then centrifuged for 10 minutes at 2000 rpm and incubated at room temperature for 1 hour and counted for 1 min/well with a Perkin Elmer TopCount reader.

[2] = biological target: T2, Calcitonin (CGRP) (Homo sapiens, UniProt O60894+Q16602); test: Aequorin assay, CGRP receptor; format: cell-based; conditions: CHO-AEQ
T2 construct: expressed in transfected cells; host or cells: CHO-AEQ (CHO-K1 coexpressing mitochondrial apoaequorin)
Procedure: as §1
Aequorin assays were conducted to monitor activity for 8′OH-2CF3-dihydroergotamine (8′OH-2CF3-DHE) against the receptors indicated in Table 1 above (except for mGlu3 and mGlu5). CHO-K1 cells coexpressing mitochondrial apoaequorin and the recombinant human receptor of interest were grown to mid-log phase in culture media without antibiotics and then detached with PBS-EDTA, centrifuged and resuspended in assay buffer (DMEM/HAM's F12 with HEPES, without phenol red+0.1% BSA, protease free) at a concentration of 1×10^6 cell/mL. […]
50 μL of the cell suspension was mixed with 50 μL of test or reference agonist in a 96-well plate. The resulting emission of light was recorded using Hamamatsu Functional Drug Screening System 6000 (FDSS 6000) luminometer. […]
To standardize the emission of recorded light (and determine of the “100% signal”) across plates and across different experiments, some wells contained 100 μM digitonin or a saturating concentration of ATP (20 μM).

[3] = biological target: T3, Dopamine D1 (Homo sapiens, UniProt P21728); test: cAMP HTRF assay, Dopamine D1; format: cell-based; conditions: CHO-K1, cAMP
T3 construct: expressed in transfected cells; host or cells: CHO-K1
Procedure: as §1
cAMP HTRF (Gs) studies were conducted to monitor activity for 8′OH-2CF3-dihydroergotamine (8′OH-2CF3-DHE) against the receptors indicated in Table 1 above. Cells expressing the human recombinant receptor of interest were grown in media without antibiotic and detached by gentle flushing with PBS-EDTA (5 mM EDTA), recovered by centrifugation and resuspended in assay buffer (KRH: 5 mM KCl, 1.25 mM MgSO4, 124 mM NaCl, 25 mM HEPES, 13.3 mM glucose, 1.25 mM KH2PO4, 1.45 mM CaCl2, 0.5 g/L BSA). Dose response curves were performed in parallel with the reference compounds. For agonist tests (96-well plates), 12 μL of cells was mixed with 12 μL of the test compound at increasing concentrations and then incubated for 30 minutes at room temperature. Lysis buffer was added and after a 1 hour incubation, cAMP concentrations was determined according to the manufacturer specification with the HTRF kit. […] Lysis buffer was added and after a 1 hour incubation, cAMP concentrations were determined according to the manufacturer specification, with the HTRF kit.

T3 sequence (P21728 whole entry): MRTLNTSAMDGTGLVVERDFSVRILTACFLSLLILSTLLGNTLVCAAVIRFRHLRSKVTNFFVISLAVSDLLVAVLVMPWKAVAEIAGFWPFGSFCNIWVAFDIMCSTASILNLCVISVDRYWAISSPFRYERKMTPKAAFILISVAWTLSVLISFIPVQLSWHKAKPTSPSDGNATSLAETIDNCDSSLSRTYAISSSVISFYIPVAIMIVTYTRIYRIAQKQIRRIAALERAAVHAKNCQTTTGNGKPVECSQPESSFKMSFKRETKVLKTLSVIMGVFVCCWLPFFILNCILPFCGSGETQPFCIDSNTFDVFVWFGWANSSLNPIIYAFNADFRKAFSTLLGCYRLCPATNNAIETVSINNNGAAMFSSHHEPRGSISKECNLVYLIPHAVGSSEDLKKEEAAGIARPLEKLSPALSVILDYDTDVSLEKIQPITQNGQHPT
T1 sequence (P08908 whole entry): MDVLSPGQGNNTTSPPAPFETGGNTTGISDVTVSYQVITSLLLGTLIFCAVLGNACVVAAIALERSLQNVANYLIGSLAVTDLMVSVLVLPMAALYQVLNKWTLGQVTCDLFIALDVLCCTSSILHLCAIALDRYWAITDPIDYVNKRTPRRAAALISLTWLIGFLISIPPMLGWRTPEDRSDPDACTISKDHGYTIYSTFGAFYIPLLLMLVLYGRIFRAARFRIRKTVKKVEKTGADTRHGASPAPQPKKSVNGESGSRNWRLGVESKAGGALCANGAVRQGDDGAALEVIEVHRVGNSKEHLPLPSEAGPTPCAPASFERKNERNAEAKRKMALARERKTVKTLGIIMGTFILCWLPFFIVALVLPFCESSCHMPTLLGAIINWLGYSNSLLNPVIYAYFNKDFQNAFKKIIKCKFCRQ
T2 sequence (Q16602 23-461): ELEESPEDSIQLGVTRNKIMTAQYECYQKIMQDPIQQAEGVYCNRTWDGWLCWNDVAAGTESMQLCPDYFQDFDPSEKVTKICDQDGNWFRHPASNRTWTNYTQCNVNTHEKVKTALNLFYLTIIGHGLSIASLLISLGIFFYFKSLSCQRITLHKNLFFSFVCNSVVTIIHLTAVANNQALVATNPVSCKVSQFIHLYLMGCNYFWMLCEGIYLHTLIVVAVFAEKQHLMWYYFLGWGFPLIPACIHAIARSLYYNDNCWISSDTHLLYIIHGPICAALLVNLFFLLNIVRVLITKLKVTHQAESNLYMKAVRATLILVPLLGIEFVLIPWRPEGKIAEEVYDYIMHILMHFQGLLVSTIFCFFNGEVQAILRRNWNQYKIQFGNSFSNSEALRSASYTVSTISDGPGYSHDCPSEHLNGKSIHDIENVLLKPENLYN
T2 sequence (O60894 27-148 partner): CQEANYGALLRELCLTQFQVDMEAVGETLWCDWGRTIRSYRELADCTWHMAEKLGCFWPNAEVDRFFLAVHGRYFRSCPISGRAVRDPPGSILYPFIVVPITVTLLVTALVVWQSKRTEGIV

SMILES: CN1C[C@H](C(=O)N[C@]2(C)O[C@@]3(O)[C@@H]4CC[C@@H](O)N4C(=O)[C@H](Cc4ccccc4)N3C2=O)C[C@@H]2c3cccc4[nH]c(C(F)(F)F)c(c34)C[C@H]21 [8′OH-2-CF3-DHE, 8′-Hydroxy-2-CF3-dihydroergotamine]
- EC50 [1]: 0.425 µM
- Activity (Agonism: EC50; Antagonism: IC50), Calcitonin (CGRP) [2]: Inactive
- Activity (Agonism: EC50; Antagonism: IC50), D1 [3]: Inactive

Source: patent US20150238487A1, “NOVEL ERGOLINE DERIVATIVES AND USES THEREOF” (MAP Pharmaceuticals, Inc., priority 2012, published 2015)
